What was measured:
[1] = Inhibitory activity against 5-hydroxytryptamine 1D receptor in calf
[2] = as above; remark: listed apart in the source

For `CCc1[nH]c2ccc(OC)cc2c1CCN(C)C` [2-ethyl-5-methoxy-N,N-dimethyltryptamine], the IC50 [1] was 1400 nM.
In the case of `COc1ccc2[nH]c(C)c(C3=CCNCC3)c2c1` [5-Methoxy-2-methyl-3-(1,2,3,6-tetrahydro-pyridin-4-yl)-1H-indole], the IC50 [2] is reported as over 1000 nM.
